Measured values reported in US10112929B2, “Lactams as inhibitors of rock” (BRISTOL-MYERS SQUIBB COMPANY, priority 2015, dated 2018).
Structures can show the parent of a compound that is named as a salt.

Molecular target: ROCK2 (Homo sapiens (Human), UniProt O75116)
Assay: biochemical
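Further: rho kinase enzyme reaction halted with EDTA, phospho- and non-phospho peptide separated for read-out, kinase activity inhibition derived across a dose-response series, DMSO under 2%.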

Sequence of ROCK2 (O75116 whole entry, species assumed): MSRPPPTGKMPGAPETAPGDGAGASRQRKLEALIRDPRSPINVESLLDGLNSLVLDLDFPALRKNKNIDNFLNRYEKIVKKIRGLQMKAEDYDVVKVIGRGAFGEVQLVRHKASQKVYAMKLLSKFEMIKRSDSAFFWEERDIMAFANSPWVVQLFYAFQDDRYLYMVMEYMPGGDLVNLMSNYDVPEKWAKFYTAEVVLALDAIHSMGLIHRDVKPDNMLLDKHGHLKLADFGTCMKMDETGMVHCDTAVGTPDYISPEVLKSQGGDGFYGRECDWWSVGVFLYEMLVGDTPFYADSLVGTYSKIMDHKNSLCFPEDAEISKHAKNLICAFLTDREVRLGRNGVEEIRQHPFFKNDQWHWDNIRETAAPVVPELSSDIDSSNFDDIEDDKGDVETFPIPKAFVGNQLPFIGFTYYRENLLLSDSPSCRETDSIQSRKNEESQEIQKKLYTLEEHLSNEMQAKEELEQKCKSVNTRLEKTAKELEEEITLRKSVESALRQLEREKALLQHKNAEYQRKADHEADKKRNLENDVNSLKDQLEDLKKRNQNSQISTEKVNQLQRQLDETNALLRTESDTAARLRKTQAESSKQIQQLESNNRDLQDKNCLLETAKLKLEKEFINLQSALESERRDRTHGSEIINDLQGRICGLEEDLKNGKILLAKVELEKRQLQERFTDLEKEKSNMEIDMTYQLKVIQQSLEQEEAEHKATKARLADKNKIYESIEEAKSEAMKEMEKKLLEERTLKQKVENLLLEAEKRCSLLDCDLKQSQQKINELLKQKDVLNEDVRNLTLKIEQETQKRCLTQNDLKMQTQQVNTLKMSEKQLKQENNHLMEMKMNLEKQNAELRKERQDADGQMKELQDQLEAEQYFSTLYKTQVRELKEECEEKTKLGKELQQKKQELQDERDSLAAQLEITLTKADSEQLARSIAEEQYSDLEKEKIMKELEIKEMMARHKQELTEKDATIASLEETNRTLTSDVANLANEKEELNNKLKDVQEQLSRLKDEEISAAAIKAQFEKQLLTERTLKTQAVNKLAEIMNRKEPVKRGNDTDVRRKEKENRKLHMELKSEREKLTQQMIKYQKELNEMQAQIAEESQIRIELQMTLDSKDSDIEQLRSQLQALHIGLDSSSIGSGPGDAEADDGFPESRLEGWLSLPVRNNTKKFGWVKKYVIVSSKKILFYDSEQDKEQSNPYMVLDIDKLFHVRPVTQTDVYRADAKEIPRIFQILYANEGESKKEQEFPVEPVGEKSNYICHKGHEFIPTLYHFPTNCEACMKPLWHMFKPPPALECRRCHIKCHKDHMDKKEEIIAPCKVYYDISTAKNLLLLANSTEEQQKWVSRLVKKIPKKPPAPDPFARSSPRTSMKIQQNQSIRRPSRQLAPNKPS

First: CCOc1cc(N2CCC(Nc3cc(F)cc(OC)c3)C2=O)ccc1-c1cn[nH]c1 (single isomer, unassigned) [Example 36, 1-(3-ethoxy-4-(1H-pyrazol-4-yl)phenyl)-3-((3-fluoro-5-methoxyphenyl)amino)pyrrolidin-2-one]
Second: CCOc1cc(N2CCC(Nc3cccc(OC)c3)C2=O)ccc1-c1cn[nH]c1 (single isomer, unassigned) [Example 35, 1-(3-ethoxy-4-(1H-pyrazol-4-yl)phenyl)-3-((3-methoxyphenyl)amino)pyrrolidin-2-one]
The IC50 of the first is lower: < 10 nM for the first, 10 to 100 nM for the second.

`COc1cc(NC2CCN(c3ccc(-c4cn[nH]c4)c(C(F)F)c3)C2=O)ccc1F` (single isomer, unassigned) [Example 179, 1-(3-(difluoromethyl)-4-(1H-pyrazol-4-yl)phenyl)-3-((4-fluoro-3-methoxyphenyl)amino)pyrrolidin-2-one] and `COc1cc(F)cc(NC2CCN(c3ccc(-c4cn[nH]c4)c(C(F)F)c3)C2=O)c1` (single isomer, unassigned) [Example 178, 1-(3-(difluoromethyl)-4-(1H-pyrazol-4-yl)phenyl)-3-((3-fluoro-5-methoxyphenyl)amino)pyrrolidin-2-one] fall in the same range of IC50: 10 to 100 nM for the first, 10 to 100 nM for the second.

First: Cc1cccc(OC2CCN(c3ccc(-c4cn[nH]c4)cc3)C2=O)c1 (stereo not shown) [Example 109, 1-(4-(1H-pyrazol-4-yl)phenyl)-3-(m-tolyloxy)pyrrolidin-2-one]
Second: COc1cccc(C2CCN(c3ccc(-c4cn[nH]c4)cc3)C2=O)c1 (stereo not shown) [Example 103, 1-(4-(1H-pyrazol-4-yl)phenyl)-3-(3-methoxyphenyl)pyrrolidin-2-one]
The IC50 of the first is higher: 100 to 2200 nM for the first, < 10 nM for the second. The second is the more potent here.

First: COc1nc(N2CCC(Nc3cccc(NS(C)(=O)=O)c3)C2=O)ccc1-c1cn[nH]c1 (racemic) [Example 265, N-(3-((1-(6-methoxy-5-(1H-pyrazol-4-yl)pyridin-2-yl)-2-oxopyrrolidin-3-yl)amino)phenyl)methanesulfonamide]
Second: CCc1nc(N2CCC(Nc3cccc(OC)c3)C2=O)ccc1-c1cn[nH]c1 (single isomer, unassigned) [Example 313, 1-(6-ethyl-5-(1H-pyrazol-4-yl)pyridin-2-yl)-3-((3-methoxyphenyl)amino) pyrrolidin-2-one]
The IC50 of the first is higher: 10 to 100 nM for the first, < 10 nM for the second. The second is the more potent here.

First: O=C1[C@H](Nc2ccc3c(c2)OCO3)CCN1c1ccc(-c2cn[nH]c2)cc1 [Example 396, (R)-1-(4-(1H-pyrazol-4-yl)phenyl)-3-(benzo[d][1,3]dioxo1-5-ylamino)pyrrolidin-2-one]
Second: COc1cccc(NC2CCN(c3ccc(-c4cn[nH]c4)cc3)C2=O)c1 (stereo not shown) [Example 63, 1-(4-(1H-pyrazol-4-yl)phenyl)-3-((3-methoxyphenyl)amino)pyrrolidin-2-one]
The IC50 of the first is higher: 10 to 100 nM for the first, < 10 nM for the second.

First: O=C1C(Nc2cccc(OCC3CC3)c2)CCN1c1ccc(-c2cn[nH]c2)cc1 (single isomer, unassigned) [Example 233, 1-(4-(1H-pyrazol-4-yl)phenyl)-3-((3-(cyclopropylmethoxy)phenyl)amino) pyrrolidin-2-one]
Second: O=C1[C@H](Nc2cccc(OCC3CC3)c2)CCN1c1ccc(-c2cn[nH]c2)cc1 (single isomer, unassigned) [Example 235, 1-(4-(1H-pyrazol-4-yl)phenyl)-3-((3-(cyclopropylmethoxy)phenyl)amino) pyrrolidin-2-one]
The IC50 of the first is higher: 10 to 100 nM for the first, < 10 nM for the second. The second is the more potent here.

First: O=C1C(Nc2ccc(F)cc2F)CCN1c1ccc(-c2cn[nH]c2)cc1 (single isomer, unassigned) [Example 25, 1-(4-(1H-pyrazol-4-yl)phenyl)-3-((2,4-difluorophenyl)amino)pyrrolidin-2-one]
Second: O=C1C(c2cccc(F)c2)CCN1c1ccc(-c2cn[nH]c2)cc1 (stereo not shown) [Example 102, 1-(4-(1H-pyrazol-4-yl)phenyl)-3-(3-fluorophenyl)pyrrolidin-2-one]
The IC50 of the first is lower: 10 to 100 nM for the first, 100 to 2200 nM for the second. The first is the more potent here.

Compared with `COc1cccc(NC2CCN(c3ccc(-c4ccncc4F)c(OC)n3)C2=O)c1` (stereo not shown) [Example 118, 1-(3′-Fluoro-2-methoxy-[3,4′-bipyridin]-6-yl)-3-((3-methoxyphenyl)amino) pyrrolidin-2-one], `COc1cccc(NC2CCN(c3ncc(-c4cn[nH]c4)c(OC)n3)C2=O)c1` (stereo not shown) [Example 132, 1-(4-Methoxy-5-(1H-pyrazol-4-yl)pyrimidin-2-yl)-3-((3-methoxyphenyl)amino) pyrrolidin-2-one] is higher in IC50: < 10 nM for the first, 10 to 100 nM for the second. The first is the more potent here.

First: COc1nc(N2CCC(N3CCC(F)(F)CC3)C2=O)ccc1-c1cn[nH]c1 (racemic) [Example 282, 3-(4,4-difluoropiperidin-1-yl)-1-(6-methoxy-5-(1H-pyrazol-4-yl)pyridin-2-yl)pyrrolidin-2-one hydrochloride]
Second: COc1nc(N2CCC(N3CC[C@H](O)C3)C2=O)ccc1-c1cn[nH]c1 (mixture of isomers) [Example 295, (3S)-3-hydroxy-1′-(6-methoxy-5-(1H-pyrazol-4-yl)pyridin-2-yl)-[l,3′-bipyrrolidin]-2′-one]
The IC50 of the first is lower: 10 to 100 nM for the first, 100 to 2200 nM for the second.

`O=C1C(Nc2cccc(OC(F)F)c2)CCN1c1ccc(-c2cn[nH]c2)c(F)c1` (single isomer, unassigned) [Example 355, 3-((3-(difluoromethoxy)phenyl)amino)-1-(3-fluoro-4-(1H-pyrazol-4-yl)phenyl) pyrrolidin-2-one] and `O=C1C(Nc2cccc(F)c2)CCN1c1ccc(-c2cn[nH]c2)c(F)c1` (single isomer, unassigned) [Example 48, 1-(3-fluoro-4-(1H-pyrazol-4-yl)phenyl)-3-((3-fluorophenyl)amino)pyrrolidin-2-one] fall in the same range of IC50: 10 to 100 nM for the first, 10 to 100 nM for the second.

`O=C1C(NCCc2ccccc2)CCN1c1ccc(-c2cn[nH]c2)cc1` (stereo not shown) [Example 59, 1-(4-(1H-pyrazol-4-yl)phenyl)-3-(phenethylamino)pyrrolidin-2-one, 2 TFA] and `O=C1C(Cc2ccccc2)CCN1c1ccc(-c2cn[nH]c2)cc1` (stereo not shown) [Example 92, 1-(4-(1H-pyrazol-4-yl)phenyl)-3-benzylpyrrolidin-2-one] fall in the same range of IC50: 100 to 2200 nM for the first, 100 to 2200 nM for the second.

`COc1ccc(F)c(NC2CCN(c3ccc(-c4cn[nH]c4)c(C(F)(F)F)c3)C2=O)c1` (single isomer, unassigned) [Example 373, 1-(4-(1H-pyrazol-4-yl)-3-(trifluoromethyl)phenyl)-3-((2-fluoro-5-methoxyphenyl)amino)pyrrolidin-2-one] and `COc1cc(F)cc(NC2CCN(c3ccc(-c4cn[nH]c4)c(C(F)(F)F)c3)C2=O)c1` (single isomer, unassigned) [Example 369, 1-(4-(1H-pyrazol-4-yl)-3-(trifluoromethyl)phenyl)-3-((3-fluoro-5-methoxyphenyl)amino)pyrrolidin-2-one] fall in the same range of IC50: 100 to 2200 nM for the first, 100 to 2200 nM for the second.

First: COc1cccc(CC2CCN(c3ccc(-c4cn[nH]c4)cc3)C2=O)c1 (stereo not shown) [Example 93, 1-(4-(1H-pyrazol-4-yl)phenyl)-3-(3-methoxybenzyl)pyrrolidin-2-one]
Second: CCOc1cccc(NC2CCN(c3ccc(-c4cn[nH]c4)cc3)C2=O)c1 (stereo not shown) [Example 6, 1-(4-(1H-pyrazol-4-yl)phenyl)-3-((3-ethoxyphenyl)amino)pyrrolidin-2-one]
The IC50 of the first is higher: 100 to 2200 nM for the first, < 10 nM for the second.

Compared with `COc1cccc(N[C@H]2C(=O)N(c3ccc(-c4cn[nH]c4)cc3)C[C@@H]2CO)c1` [Example 133, (3R,4S)-1-(4-(1H-Pyrazol-4-yl)phenyl)-4-(hydroxymethyl)-3-((3-methoxyphenyl)amino) pyrrolidin-2-one], `CCOc1cccc(NC2CCN(c3ccc(-c4cn[nH]c4)c(OC)c3)C2=O)c1` (single isomer, unassigned) [Example 249, 3-((3-ethoxyphenyl)amino)-1-(3-methoxy-4-(1H-pyrazol-4-yl)phenyl)pyrrolidin-2-one] is higher in IC50: < 10 nM for the first, 10 to 100 nM for the second. The first is the more potent here.

Compared with `COc1cccc(NC2CCN(c3cc(F)c(-c4cn[nH]c4)c(F)c3)C2=O)c1` (single isomer, unassigned) [Example 311, 1-(3,5-difluoro-4-(1H-pyrazol-4-yl)phenyl)-3-((3-methoxyphenyl)amino)pyrrolidin-2-one], `COc1cccc(NC2CCN(c3cc(C)c(-c4cn[nH]c4)cn3)C2=O)c1` (racemic) [Example 200, 3-((3-methoxyphenyl)amino)-1-(4-methyl-5-(1H-pyrazol-4-yl)pyridin-2-yl)pyrrolidin-2-one] is higher in IC50: < 10 nM for the first, 100 to 2200 nM for the second. The first is the more potent here.

`O=C1C(Nc2nc3ccccc3[nH]2)CCN1c1ccc(-c2cn[nH]c2)cc1` (single isomer, unassigned) [Example 55, 3-((1H-benzo[d]imidazol-2-yl)amino)-1-(4-(1H-pyrazol-4-yl)phenyl)pyrrolidin-2-one] and `O=C1C(Nc2cccc(OC(F)F)c2)CCN1c1ccc(-c2cn[nH]c2)cn1` (single isomer, unassigned) [Example 321, 1-(5-(1H-pyrazol-4-yl)pyridin-2-yl)-3-((3-(difluoromethoxy)phenyl)amino) pyrrolidin-2-one] fall in the same range of IC50: 100 to 2200 nM for the first, 100 to 2200 nM for the second.

First: COc1cccc(NC2CCN(c3ccc(-c4cn[nH]c4)c(OC)n3)C2=O)c1C (stereo not shown) [Example 117, 3-((3-Methoxy-2-methylphenyl)amino)-1-(6-methoxy-5-(1H-pyrazol-4-yl)pyridin-2-yl)pyrrolidin-2-one]
Second: COc1cc(N2CCC(Nc3cccc(F)c3OC)C2=O)ccc1-c1cn[nH]c1 (single isomer, unassigned) [Example 150, 3-((3-fluoro-2-methoxyphenyl)amino)-1-(3-methoxy-4-(1H-pyrazol-4-yl)phenyl) pyrrolidin-2-one]
The IC50 of the first is lower: < 10 nM for the first, 100 to 2200 nM for the second. The first is the more potent here.

First: COc1nc(N2CCC(N3CC(C)OC(C)C3)C2=O)ccc1-c1cn[nH]c1 (racemic) [Example 275, 3-(2,6-dimethylmorpholino)-1-(6-methoxy-5-(1H-pyrazol-4-yl)pyridin-2-yl)pyrrolidin-2-one]
Second: COc1cc(F)cc(OC2CCN(c3ccc(-c4cn[nH]c4)c(OC)n3)C2=O)c1 (single isomer, unassigned) [Example 173, 3-(3-fluoro-5-methoxyphenoxy)-1-(6-methoxy-5-(1H-pyrazol-4-yl)pyridin-2-yl)pyrrolidin-2-one]
The IC50 of the first is higher: 100 to 2200 nM for the first, < 10 nM for the second.

In the case of `O=C1C(Nc2cccc(OCC3CC3)c2)CCN1c1ccc(-c2cn[nH]c2)c(F)c1` (single isomer, unassigned) [Example 362, 3-((3-(cyclopropylmethoxy)phenyl)amino)-1-(3-fluoro-4-(1H-pyrazol-4-yl)phenyl)pyrrolidin-2-one], the IC50 is reported as 10 to 100 nM.
